Experimental data reported in patent US20100160370A1, “METHOD OF TREATMENT AND PHARMACEUTICAL COMPOSITIONS” (Gilead Sciences, Inc., priority 2008, published 2010).

Columns and labels:
Type in all cases: in vivo
bleomycin rat model = test: Bleomycin rat model: white blood cell counts in lung lavage; conditions: for Lymphocyte Count (Average) / Macrophage Count (Average) / Neutrophil Count (Average) / Total Cell Count (Average): oral gavage twice a day, lung lavage
Text: The bleomycin rat model was used in this study to evaluate (R)-N-((2S,3S)-2-(fluoromethyl)-2-hydroxy-5-oxo-tetrahydrofuran-3-yl)-5-isopropyl-3-(isoquinolin-1-yl)-4,5-dihydroisoxazole-5-carboxamide as a possible therapeutic drug for the treatment of idiopathic pulmonary fibrosis (IPF) and other fibrotic lung diseases. The bleomycin animal model of IPF is an art-recognized model for evaluating potentially therapeutic drugs for the treatment of IPF (see, e.g., F. Chua et al., Pulmonary Fibrosis, Searching for Model Answers, Am. J. Respir. Cell. Mol. Biol., 33:9-13 (2005); A. Moeller et al., The bleomycin animal model: A useful tool to investigate treatment options for idiopathic pulmonary fibrosis, International Journal of Biochemistry and Cell Biology, 40: 362-382 (2008)). In this Example, (R)-N-((2S,3S)-2-(fluoromethyl)-2-hydroxy-5-oxo-tetrahydrofuran-3-yl)-5-isopropyl-3-(isoquinolin-1-yl)-4,5-dihydroisoxazole-5-carboxamide is referred to as the “test compound” for ease of reference. […] The abbreviations used in Table 1 are Bleo (bleomycin), IT (intratracheal), mg/kg (milligram per kilogram), N (number) and n/a (not applicable). [table] The rats receiving the test compound were gavaged twice a day from day zero (the day of bleomycin administration) through the day prior to necropsy. On days 14 and 28 the designated rats were euthanized with a pentobarbital-based solution, the chest cavity was opened and examined for gross pathology. The right lung was removed, canulated, and lavaged for determination of white blood cell counts. The lavaged tissue was flash frozen and analyzed for collagen content by measuring the amount of collagen. The left lung was fixed for histopathology. Homogenates from the lungs were analyzed for cytokines. Intratracheal administration of bleomycin induces a two-stage response in the lungs of rats. The first stage is an inflammatory response which peaks at about 14 days after bleomycin administration, and the second stage is a fibrotic response that is apparent by 28 days after bleomycin administration. The inflammation markers that were measured in this study were the influx of leukocytes (neutrophils, macrophages and lymphocytes) into the airways, and the induction of the cytokines MCP-1 and MCP-3 (where MCP stands for Monocyte Chemoattractant Protein). Tables 2, 3, 4 and 5 show the total cell count, neutrophil count, macrophage count and the lymphocyte count, respectively, from the treated rats at 14 days and 28 days (Values for cell numbers are ×10^6). The abbreviation SEM stands for Standard Error of the Mean. In Tables 2 thru 8 the t-test was an unpaired, two-tailed, t-test performed using a GraphPad Prism version 5.01 for Windows (GraphPad Software, San Diego, Calif. USA).

MCP-1 = test: Bleomycin rat model: MCP-1 level in bronchoalveolar lavage fluid (Luminex/Procarta cytokine assay); conditions: for MCP-1 concentration (Average): oral gavage twice a day, BAL
Text: (§1) The bleomycin rat model was used in this study to evaluate (R)-N-((2S,3S)-2-(fluoromethyl)-2-hydroxy-5-oxo-tetrahydrofuran-3-yl)-5-isopropyl-3-(isoquinolin-1-yl)-4,5-dihydroisoxazole-5-carboxamide as a possible therapeutic drug for the treatment of idiopathic pulmonary fibrosis (IPF) and other fibrotic lung diseases. The bleomycin animal model of IPF is an art-recognized model for evaluating potentially therapeutic drugs for the treatment of IPF (see, e.g., F. Chua et al., Pulmonary Fibrosis, Searching for Model Answers, Am. J. Respir. Cell. Mol. Biol., 33:9-13 (2005); A. Moeller et al., The bleomycin animal model: A useful tool to investigate treatment options for idiopathic pulmonary fibrosis, International Journal of Biochemistry and Cell Biology, 40: 362-382 (2008)).
(§2) The rats receiving the test compound were gavaged twice a day from day zero (the day of bleomycin administration) through the day prior to necropsy. On days 14 and 28 the designated rats were euthanized with a pentobarbital-based solution, the chest cavity was opened and examined for gross pathology. The right lung was removed, canulated, and lavaged for determination of white blood cell counts. The lavaged tissue was flash frozen and analyzed for collagen content by measuring the amount of collagen. The left lung was fixed for histopathology. Homogenates from the lungs were analyzed for cytokines.
(§3) Intratracheal administration of bleomycin induces a two-stage response in the lungs of rats. The first stage is an inflammatory response which peaks at about 14 days after bleomycin administration, and the second stage is a fibrotic response that is apparent by 28 days after bleomycin administration. The inflammation markers that were measured in this study were the influx of leukocytes (neutrophils, macrophages and lymphocytes) into the airways, and the induction of the cytokines MCP-1 and MCP-3 (where MCP stands for Monocyte Chemoattractant Protein). Tables 2, 3, 4 and 5 show the total cell count, neutrophil count, macrophage count and the lymphocyte count, respectively, from the treated rats at 14 days and 28 days (Values for cell numbers are ×10^6). The abbreviation SEM stands for Standard Error of the Mean. In Tables 2 thru 8 the t-test was an unpaired, two-tailed, t-test performed using a GraphPad Prism version 5.01 for Windows (GraphPad Software, San Diego, Calif. USA).
(§4) Additionally, MCP-1 and MCP-3 levels in the rat Bronchoalveolar Lavage Fluid (BAL) were measured using Luminex xMap Technology CS1000 (Austin, Tex.) and a Procarta Cytokine Assay Kit (rat 15-plex) manufactured by Panomics, Inc. (Fremont, Calif.) that included analytes for: IL-1α, IL-1β, IL-6, TNFα, KC, MCP-1, MCP-3, MIP-1α, RANTES, VEGF, TGFb, IL-4, IL-10, IFNg, and GM-CSF. Three replicate assay wells (n=3) were analyzed for each experimental sample following the manufacturer's instructions. Quantitation of each analyte was determined against standard curves using MiraiBio's (Alameda, Calif.) Masterplex QT v 3.0 software. For all samples, background signals in the absence of BAL were determined and subtracted from signals obtained in the presence of BAL to obtain the net signal. Statistical significance of biological studies was tested with a two-tailed Student t-test. Tables 6 and 7 show the concentrations of cytokines MCP-1 and MCP-3, respectively, in the airways of the treated rats, expressed in pg/mL.

MCP-3 = test: Bleomycin rat model: MCP-3 level in bronchoalveolar lavage fluid (Luminex/Procarta cytokine assay); conditions: for MCP-3 concentration (Average): oral gavage twice a day, BAL
Text: as §1, §2, §3, §4

collagen = test: Bleomycin rat model: lung collagen deposition (pepsin digest, SDS-PAGE densitometry); set-up: Collagen Response (Average collagen concentration): unit not given here; conditions: for Collagen Response (Average collagen concentration): oral gavage twice a day, 28 day, lung tissue
Text: The bleomycin rat model was used in this study to evaluate (R)-N-((2S,3S)-2-(fluoromethyl)-2-hydroxy-5-oxo-tetrahydrofuran-3-yl)-5-isopropyl-3-(isoquinolin-1-yl)-4,5-dihydroisoxazole-5-carboxamide as a possible therapeutic drug for the treatment of idiopathic pulmonary fibrosis (IPF) and other fibrotic lung diseases. The bleomycin animal model of IPF is an art-recognized model for evaluating potentially therapeutic drugs for the treatment of IPF (see, e.g., F. Chua et al., Pulmonary Fibrosis, Searching for Model Answers, Am. J. Respir. Cell. Mol. Biol., 33:9-13 (2005); A. Moeller et al., The bleomycin animal model: A useful tool to investigate treatment options for idiopathic pulmonary fibrosis, International Journal of Biochemistry and Cell Biology, 40: 362-382 (2008)). The rats receiving the test compound were gavaged twice a day from day zero (the day of bleomycin administration) through the day prior to necropsy. On days 14 and 28 the designated rats were euthanized with a pentobarbital-based solution, the chest cavity was opened and examined for gross pathology. The right lung was removed, canulated, and lavaged for determination of white blood cell counts. The lavaged tissue was flash frozen and analyzed for collagen content by measuring the amount of collagen. The left lung was fixed for histopathology. Homogenates from the lungs were analyzed for cytokines. […] Gels were then stained with Coomassie Blue and stained bands migrating coincident with type I collagen standards were compared by densitometry to the Coomassie stained collagen standards in order to quantitate collagen content. Under the reducing conditions employed in the analysis, the quantitated lung sample gel bands represented the alpha 1 and 2 chains of type I collagen and the alpha 1 chain of type Ill collagen. Blots were scanned with a BioRad GS-800 Scanner and their density was quantitated using “Quantity One” computer software from BioRad. Results were averaged for each treatment group and expressed as micrograms of collagen/mg of lung tissue.

[1] = Bleomycin IT 3.5 mg/kg + 10 mg/Kg test compound, 14 day
[2] = Bleomycin IT 3.5 mg/kg + 10 mg/Kg test compound, 28 day
[3] = Bleomycin IT 3.5 mg/kg + 30 mg/Kg test compound, 14 day
[4] = Bleomycin IT 3.5 mg/kg + 30 mg/Kg test compound, 28 day
[5] = orally administered, bleomycin-treated rats, result in words
[6] = bleomycin-treated rats, result in words

## CC(C)[C@@]1(C(=O)N[C@H]2CC(=O)O[C@]2(O)CF)CC(c2nccc3ccccc23)=NO1 [Test Compound, (R)-N-((2S,3S)-2-(fluoromethyl)-2-hydroxy-5-oxo-tetrahydrofuran-3-yl)-5-isopropyl-3-(isoquinolin-1-yl)-4,5-dihydroisoxazole-5-carboxamide]
Bleomycin rat model; [1]
  Lymphocyte Count (Average): 0.002 ×10^6
  Macrophage Count (Average): 0.415 ×10^6
  Neutrophil Count (Average): 0.006 ×10^6
  Total Cell Count (Average): 1.988 ×10^6
Bleomycin rat model; [2]
  Lymphocyte Count (Average): 0.007 ×10^6
  Macrophage Count (Average): 0.442 ×10^6
  Neutrophil Count (Average): 0.012 ×10^6
  Total Cell Count (Average): 2.276 ×10^6
Bleomycin rat model; [3]
  Lymphocyte Count (Average): 0.003 ×10^6
  Macrophage Count (Average): 0.285 ×10^6
  Neutrophil Count (Average): 0.005 ×10^6
  Total Cell Count (Average): 1.482 ×10^6
Bleomycin rat model; [4]
  Lymphocyte Count (Average): 0.004 ×10^6
  Macrophage Count (Average): 0.476 ×10^6
  Neutrophil Count (Average): 0.008 ×10^6
  Total Cell Count (Average): 2.207 ×10^6
Bleomycin rat model; [5]
  influx of lymphocytes into the airways: inhibited the influx
  influx of macrophages into the airways: inhibited the influx
  influx of neutrophils into the airways: inhibited the influx
MCP-1; [1]
  MCP-1 concentration (Average): 66.122 pg/mL
MCP-1; [2]
  MCP-1 concentration (Average): 12.800 pg/mL
MCP-1; [3]
  MCP-1 concentration (Average): 13.838 pg/mL
MCP-1; [4]
  MCP-1 concentration (Average): 11.844 pg/mL
MCP-1; [6]
  production of MCP-1 in the lungs: inhibited the production
MCP-3; [1]
  MCP-3 concentration (Average): 37.987 pg/mL
MCP-3; [2]
  MCP-3 concentration (Average): 7.075 pg/mL
MCP-3; [3]
  MCP-3 concentration (Average): 5.668 pg/mL
MCP-3; [4]
  MCP-3 concentration (Average): 6.497 pg/mL
MCP-3; [6]
  production of MCP-3 in the lungs: inhibited the production
collagen; Bleomycin IT 3.5 mg/kg + 10 mg/Kg test compound
  Collagen Response (Average collagen concentration): 2.353
collagen; Bleomycin IT 3.5 mg/kg + 30 mg/Kg test compound
  Collagen Response (Average collagen concentration): 3.891
collagen; [5]
  deposition of collagen during the fibrotic phase of the bleomycin response: inhibited the deposition of collagen
